Assay results as given in US20230219964A1, “ANTIBACTERIAL AND ANTIFUNGAL PLEUROMUTILIN CONJUGATES” (SYDDANSK UNIVERSITET, priority 2020, published 2023).
≈ marks a conversion by molar mass, not a printed value. Like-named read-outs stand apart in the source and are kept apart here.

What was measured:
[1] = system: vancomycin-resistant enterococci (VRE) cells, VRE 5; test: MIC in vitro broth micro-dilution assay, VRE 5; type: cell-based; settings: lowest concentration to fully inhibit visible growth (OD600), clinical isolate, ampicillin, ciprofloxacin, vancomycin and linezolid resistant; for MIC: Enterococcus, VRE, read-out: in vitro susceptibility (MIC) VRE 5
Description: (§1) Bacterial susceptibility was established through an in vitro cell-based broth micro-dilution assay. To produce accurate and reproducible MIC-values, a procedure was used which follows the guidelines set by the Clinical and Laboratory Standards Institute (CLSI, USA) and the European Committee on Antimicrobial Susceptibility Testing (EUCAST). The micro-dilutions were carried out in 96-well plates, according to FIG. 3, wherein column 1 is a growth control, Columns 2 to 11 are dilutions of 1×, 2×, 4×, 8×, 16×, 32×, 64×, 128×, 256×, 512× respectively, and column 12 is a sterile control. To further increase the reliability of each susceptibility test, inoculation involved the use of three independent overnight cultures (ON1-ON3) thus giving rise to […]. Furthermore, each ON was added to two individual dilution rows, giving rise to […]. The standard inoculum was set to ˜5-10^5 colony-forming units (CFU) mL^−1. This was verified by dilution onto agar plates after each overall run.
(§2) The applied procedure was:
(§3) 1.1 MH or BHI agar plates for dilutions were created, 1 plate per overnight (ON) culture and MH or BHI media. 1.2 Day 1: Preparation of ON cultures of the bacterial strain in question, by inoculation of a single colony in 5 mL of MH or BHI media. Then incubation at 37° C. with aeration for approximately 16-20 hours. Biological triplicates were created by inoculation from 3 different colonies per strain.
(§4) 1.3 Day 2: A 96-well plate with the antibiotic/compound in question was prepared as according to FIG. 3: 1.4 In a 15 mL falcon tube, an appropriate volume of a 1000 μg/mL antibiotic/compound DMSO stock was diluted with MH or BHI media such that a 2× concentration and total volume of 10 mL was achieved. 1.5 A multi-channel pipette was used in the following. 1.6 Column 1 was used for growth control, so no antibiotic/compound was added to that column. 1.7 200 μl of 2× concentration of the antibiotic/compound was added to column 2. Technical duplicates were always created, thus 2 columns per ON culture. 1.8 100 μl of MH or BHI media was added to columns 1, 3-11 and 200 μl of MH or BHI media to column 12. 1.9 100 μl was transferred from column 2 to column 3. The same pipetting tips were used to transfer 100 μL from column 3 to 4. This scheme was repeated until column 11 where 100 μl was discarded after re-suspending. Column 12 was used as a sterile control, so no antibiotic/compound was added to that column. Each transferring involved pipetting up and down 5 to 7 times. 1.10 The plates were fully dried for CFU in the 42° C. incubator, 4× dilutions in triplicates per one plate.
(§5) 1.11 The optical density of bacterial cells in the ON culture was measured at wavelength 600 nm (OD600). Then the ON culture was diluted to an OD600=0.1. 1.12 Then the OD600 was re-measured to make certain that it was between 0.08 and 0.13. 1.13 The prepared 0.1 culture of 1.12 was diluted 100× more by transferring of 100 μl thereof, to 10 ml of MH or BHI media (enough for a 96-well plate). 1.14 Then 200 μl of the 100× dilution in 1.13 was transferred to Eppendorf tubes and kept cold until use. 1.15 100 μl of culture with an OD600 on approximately 0.001 was dispensed to each well of columns 1 to 11. 1.16 The plate was closed. Covered with aluminium foil and small holes were created with a 100-200 μL tip.
(§6) 1.17 The 96-well plate was then incubated at 37° C. with agitation and left for 16-hours.
(§7) 1.18 Verification of standard inoculum: The 100× diluted culture of 1.13 was used to create 10^−1 to 10^−4 dilutions in PBS/0.9% saline (100 μl sample to 900 μl PBS, mix well and continue until 10^−4). 1.19 10 μl of the 10^−2, 10^−3 and 10^−4 dilutions in 1.18 were spotted onto very dry MH or BHI plates in triplicates. 1.20 Then incubated overnight at 37° C. 1.21 The plates were examined manually or by using the plate reader.

[2] = system: vancomycin-resistant enterococci (VRE) cells, VRE 1; test: MIC in vitro broth micro-dilution assay, VRE 1; type: cell-based; settings: lowest concentration to fully inhibit visible growth (OD600), clinical isolate, ampicillin, ciprofloxacin and vancomycin resistant; for MIC: Enterococcus, VRE, read-out: in vitro susceptibility (MIC) VRE 1
Description: as §1, §2, §3, §4, §5, §6, §7

[3] = system: Multi-resistant Staphylococcus aureus (MRSA) USA300 cells; test: MIC in vitro broth micro-dilution assay, MRSA USA300; type: cell-based; settings: for MIC: Staphylococcus aureus
Description: as §1, §2, §3, §4, §5, §6, §7

S. pneumonia cells = test: MIC in vitro broth micro-dilution assay, S. pneumonia; type: cell-based, Streptococcus pneumonia; settings: lowest concentration to fully inhibit visible growth (OD600), clinical isolate; for MIC: Streptococcus pneumoniae, read-out: in vitro susceptibility (MIC) S. Pneumonia
Description: as §1, §2, §3, §4, §5, §6, §7

E. faecalis cells = test: MIC in vitro broth micro-dilution assay, E. faecalis; type: cell-based, Enterococcus faecalis; settings: lowest concentration to fully inhibit visible growth (OD600), clinical isolate; for MIC: Enterococcus faecalis, read-out: in vitro susceptibility (MIC) E. Faecalis
Description: as §1, §2, §3, §4, §5, §6, §7

[4] = lowest concentration to fully inhibit visible growth (OD600), ATCC strain, read-out: in vitro susceptibility (MIC) MRSA USA3000

Compound	MIC [1] [µg/mL]	MIC [2] [µg/mL]	MIC [3, 4] [µg/mL]	MIC (S. pneumonia cells) [µg/mL]	MIC (E. faecalis cells) [µg/mL]	also measured
C=C[C@]1(C)C[C@@H](OC(=O)Cn2cc(-c3ccc([C@@H](C)n4cnc5c(N)ncnc54)cc3)nn2)[C@]2(C)[C@H](C)CC[C@]3(CCC(=O)[C@H]32)[C@@H](C)[C@@H]1O [C12, 22-[4-(4-((R)-1-(6-amino-9H-purin-9-yl)ethyl)phenyl)-1H-1,2,3-triazol-1-yl]-22-deoxypleuromutilin]	0.25 (≈ 0.375 µM)	0.25 (≈ 0.375 µM)	0.12 (≈ 0.18 µM)	0.25 (≈ 0.375 µM)	0.25 (≈ 0.375 µM)	–
C=C[C@]1(C)C[C@@H](OC(=O)Cn2cc(-c3ccc(Cn4cc(C)c(=O)[nH]c4=O)cc3)nn2)[C@]2(C)[C@H](C)CC[C@]3(CCC(=O)[C@H]32)[C@@H](C)[C@@H]1O [C20, 22-[4-(4-((Thymine-1-yl)methyl)phenyl)-1,2,3-triazol-1-yl]-22-deoxypleuromutilin]	0.5 (≈ 0.777 µM)	0.5 (≈ 0.777 µM)	0.12 (≈ 0.186 µM)	1 (≈ 1.55 µM)	1 (≈ 1.55 µM)	–
C=C[C@]1(C)C[C@@H](OC(=O)Cn2cc(-c3cccc(NC(=O)c4ccccc4)c3)nn2)[C@]2(C)[C@H](C)CC[C@]3(CCC(=O)[C@H]32)[C@@H](C)[C@@H]1O [C14, 22-[4-(3-benzamidophenyl)-1,2,3-triazole-1-yl]-22-deoxypleuromutilin]	–	–	0.5 (≈ 0.8 µM)	–	–	–
C=C[C@]1(C)C[C@@H](OC(=O)Cn2cc(-c3cccc(Nc4ncnc5[nH]cnc45)c3)nn2)[C@]2(C)[C@H](C)CC[C@]3(CCC(=O)[C@H]32)[C@@H](C)[C@@H]1O [C18, 22-[4-(3-((9H-purin-6-yl)amino)phenyl)-1,2,3-triazole-1-yl]-22-deoxypleuromutilin]	0.25 (≈ 0.391 µM)	0.25 (≈ 0.391 µM)	0.06 (≈ 0.0939 µM)	0.5 (≈ 0.783 µM)	0.5 (≈ 0.783 µM)	–
C=C[C@]1(C)C[C@@H](OC(=O)Cn2cc(-c3ccc(Cn4cnc5c(N)ncnc54)cc3)nn2)[C@]2(C)[C@H](C)CC[C@]3(CCC(=O)[C@H]32)[C@@H](C)[C@@H]1O [C1]	0.25 (≈ 0.383 µM)	0.25 (≈ 0.383 µM)	0.03 (≈ 0.046 µM)	0.05 (≈ 0.0766 µM)	0.25 (≈ 0.383 µM)	MIC ([3]; read-out: MIC value, MRSA USA300 cells): 0.03 µg/mL (≈ 0.046 µM)
C=C[C@]1(C)C[C@@H](CC(=O)Cn2cc(-c3ccc(-n4cnc5c(N)ncnc54)cc3)nn2)[C@]2(C)[C@H](C)CC[C@]3(CCC(=O)[C@H]32)[C@@H](C)[C@@H]1O [prior art compound 8, reference compound]	–	–	0.5 (≈ 0.785 µM)	–	–	–
C=C[C@]1(C)C[C@@H](OC(=O)Cn2cc(-c3ccc(Cn4cnc5c(N)ncnc54)nc3)nn2)[C@]2(C)[C@H](C)CC[C@]3(CCC(=O)[C@H]32)[C@@H](C)[C@@H]1O [C7, 22-[4-(6-((6-Amino-9H-purin-9-yl)methyl)pyridin-3-yl)-1H-1,2,3-triazol-1-yl]-22-deoxypleuromutilin]	0.12 (≈ 0.184 µM)	0.12 (≈ 0.184 µM)	–	0.25 (≈ 0.382 µM)	0.25 (≈ 0.382 µM)	in vitro susceptibility (MIC) MRSA USA3000 ([3]; lowest concentration to fully inhibit visible growth (OD600), ATCC strain, listed as drawing 80): 0.03 µg/mL
C=C[C@]1(C)C[C@@H](OC(=O)Cn2cc(-c3cccc(NC(=O)c4ccc(OC)cc4)c3)nn2)[C@]2(C)[C@H](C)CC[C@]3(CCC(=O)[C@H]32)[C@@H](C)[C@@H]1O [C15, 22-[4-(3-(4-methoxybenzamido)phenyl)-1,2,3-triazole-1-yl]-22-deoxypleuromutilin]	0.25 (≈ 0.382 µM)	0.12 (≈ 0.183 µM)	0.12 (≈ 0.183 µM)	0.25 (≈ 0.382 µM)	0.25 (≈ 0.382 µM)	–
C=C[C@]1(C)C[C@@H](OC(=O)Cn2cc(-c3ccc([C@@H](C)n4cnc5c(N6CCNCC6)ncnc54)cc3)nn2)[C@]2(C)[C@H](C)CC[C@]3(CCC(=O)[C@H]32)[C@@H](C)[C@@H]1O [C13, 22-[4-(4-((R)-1-(6-(piperazin-1-yl)-9H-purin-9-yl)ethyl)phenyl)-1H-1,2,3-triazol-1-yl]-22-deoxypleuromutilin]	0.12 to 0.25 (≈ 0.163 to 0.34 µM)	0.25 (≈ 0.34 µM)	0.5 (≈ 0.679 µM)	0.25 (≈ 0.34 µM)	0.25 (≈ 0.34 µM)	–
C=C[C@]1(C)C[C@@H](OC(=O)Cn2cc(-c3ccc(Cn4cnc5c(N)ncnc54)c(OC)c3)nn2)[C@]2(C)[C@H](C)CC[C@]3(CCC(=O)[C@H]32)[C@@H](C)[C@@H]1O [C8, 22-[4-(4-((6-Amino-9H-purin-9-yl)methyl)-3-methoxyphenyl)-1H-1,2,3-triazol-1-yl]-22-deoxypleuromutilin]	0.12 (≈ 0.176 µM)	0.12 (≈ 0.176 µM)	0.06 (≈ 0.0879 µM)	0.25 (≈ 0.366 µM)	0.25 (≈ 0.366 µM)	–
Valnemulin [reference compound]	–	–	–	–	–	in vitro susceptibility (MIC) VRE 5 [1]: 0.015 µg/mL; in vitro susceptibility (MIC) VRE 1 [2]: 0.03 µg/mL; in vitro susceptibility (MIC) MRSA USA3000 ([3]; lowest concentration to fully inhibit visible growth (OD600), ATCC strain): 0.06 µg/mL; in vitro susceptibility (MIC) S. Pneumonia (S. pneumonia cells): 0.06 to 0.12 µg/mL; in vitro susceptibility (MIC) E. Faecalis (E. faecalis cells): 0.03 µg/mL
C=C[C@]1(C)C[C@@H](CC(=O)Cn2cc(-c3cccc(-n4cnc5c(N)ncnc54)c3)nn2)[C@]2(C)[C@H](C)CC[C@]3(CCC(=O)[C@H]32)[C@@H](C)[C@@H]1O [prior art compound 7, reference compound]	–	–	0.06 (≈ 0.0942 µM)	–	–	–
C=C[C@]1(C)C[C@@H](OC(=O)CSC2CC[C@@H](N)C[C@H]2O)[C@]2(C)[C@H](C)CC[C@]3(CCC(=O)[C@H]32)[C@@H](C)[C@@H]1O.CC(=O)O (some centres unmarked) [Lefamulin.Ac, reference compound]	0.12	0.12	–	0.12	0.06	–
C=C[C@]1(C)C[C@@H](OC(=O)Cn2cc(-c3cccc(Oc4nc(N)nc5[nH]cnc45)c3)nn2)[C@]2(C)[C@H](C)CC[C@]3(CCC(=O)[C@H]32)[C@@H](C)[C@@H]1O [C17, 22-[4-(3-((2-amino-9H-purin-6-yl)oxy)phenyl)-1,2,3-triazole-1-yl]-22-deoxypleuromutilin]	–	–	0.12 (≈ 0.183 µM)	–	–	–
C=C[C@]1(C)C[C@@H](OC(=O)Cn2cc(-c3cccc(Oc4ncnc5[nH]cnc45)c3)nn2)[C@]2(C)[C@H](C)CC[C@]3(CCC(=O)[C@H]32)[C@@H](C)[C@@H]1O [C16, 22-[4-(3-((9H-purin-6-yl)oxy)phenyl)-1,2,3-triazole-1-yl]-22-deoxypleuromutilin]	–	–	0.12 (≈ 0.188 µM)	–	–	–
C=C[C@]1(C)C[C@@H](OC(=O)Cn2cc(-c3ccc(Cn4cnc5c(N)nc(F)nc54)cc3)nn2)[C@]2(C)[C@H](C)CC[C@]3(CCC(=O)[C@H]32)[C@@H](C)[C@@H]1O [C5, 22-[4-(4-((6-Amino-2-fluoro-9H-purin-9-yl)methyl)phenyl)-1H-1,2,3-triazol-1-yl]-22-deoxypleuromutilin]	–	–	0.06 (≈ 0.0894 µM)	–	–	–
